Experiments:
[1] = biological target: T1, β2-adrenergic receptor (Homo sapiens, UniProt P07550); format: cell-based; settings: for outcome in high-throughput screen of kinase/phosphatase inhibitor library: library at 3 uM, 384-well plate, duplicate
T1 construct: expressed in transfected cells; host or cells: C2C12 myoblasts (retroviral transduction)

[2] = biological target: T1, β2-adrenergic receptor; format: cell-based; settings: compound applied 30 min before stimulation with 10 uM isoproterenol
Description: Assays and cell preparation. […] LysoTracker Red and Texas Red-labeled transferrin were purchased from Molecular Probes. The Kinase/Phosphatase Inhibitor Library was purchased from BIOMOL, and the Mechanistic and Diversity Compound Libraries were provided by the Developmental Therapeutics Program of the National Cancer Institute. Cells were plated and grown to confluency in 96-well white tissue culture dishes (Corning Costar), in 100 μl of growth media. Dose-response curves were generated by adding the respective ligand to the media and incubating for 2 h at 37° C. […] At the end of the described incubation time, Gal-Screen reagent (Buffer B formulation, Applied Biosystems) was used to assay for β-galactosidase activity, according to manufacturer's protocol; media was aspirated from the plate, and 50 μl (or 25 μl for 384-well plates, without prior media aspiration) of Gal-Screen substrate diluted in lysis buffer was added to each well.

[3] = biological target: Angiotensin II receptor 1a (AT1a) (Mus musculus, UniProt P29754); settings: 2 hr
From the text: Plasmids. […] Other FYVE domains were generated similarly by RT-PCR^˜. […] To generate a β2AR-eYFP-α construct, the eYFP-α fragment was subcloned into the β2AR-ωplasmid using Xhol and HindIII. The Angiotensin receptor 1a was derived by RT-PCR from C57/BI6 mouse brain RNA using primers for the entire coding sequence, minus the stop codon; it was cloned N-terminally to eYFP-α or ω with MfeI and XhoI. […] Finally, to generate fusion proteins with β-arrestin, the full coding sequence of human β-arrestin B2 was PCR amplified from a cDNA clone and inserted into the Mfel-XhoI sites of the ω and eYFP-α vectors.
Assays and cell preparation. […] LysoTracker Red and Texas Red-labeled transferrin were purchased from Molecular Probes. The Kinase/Phosphatase Inhibitor Library was purchased from BIOMOL, and the Mechanistic and Diversity Compound Libraries were provided by the Developmental Therapeutics Program of the National Cancer Institute. Cells were plated and grown to confluency in 96-well white tissue culture dishes (Corning Costar), in 100 μl of growth media. Dose-response curves were generated by adding the respective ligand to the media and incubating for 2 h at 37° C. […]

T1 sequence (P07550 whole entry, species assumed): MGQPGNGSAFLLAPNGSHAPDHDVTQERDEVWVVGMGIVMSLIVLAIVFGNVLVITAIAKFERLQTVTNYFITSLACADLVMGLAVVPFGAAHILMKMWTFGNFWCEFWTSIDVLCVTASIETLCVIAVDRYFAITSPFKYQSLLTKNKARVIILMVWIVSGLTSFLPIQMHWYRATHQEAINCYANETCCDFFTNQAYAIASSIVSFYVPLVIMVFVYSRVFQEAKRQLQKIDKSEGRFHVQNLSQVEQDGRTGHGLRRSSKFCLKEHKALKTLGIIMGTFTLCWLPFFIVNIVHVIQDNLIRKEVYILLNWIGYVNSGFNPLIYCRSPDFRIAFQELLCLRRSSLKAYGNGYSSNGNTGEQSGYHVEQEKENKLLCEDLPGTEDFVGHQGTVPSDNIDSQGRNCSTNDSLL

In the case of `O=CN/C=C/c1cc(O)ccc1O` [erbstatin], the “outcome in high-throughput screen of kinase/phosphatase inhibitor library” value [1] is reported as “inhibitors of internalization”.
For `CN[C@@H]1C[C@H]2O[C@@](C)([C@@H]1OC)n1c3ccccc3c3c4c(c5c6ccccc6n2c5c31)C(=O)NC4` [staurosporine], the “outcome in high-throughput screen of kinase/phosphatase inhibitor library” value [1] was “inhibitors of internalization”.
For `COC[C@H]1OC(=O)c2coc3c2[C@@]1(C)C1=C(C3=O)[C@@H]2CCC(=O)[C@@]2(C)C[C@H]1OC(C)=O` [wortmannin], the inhibition of activation [2] was “approximately 50%” and the “inhibition, internalization assay” value [1] was “approximately 90%”.
With angiotensin II the “increase in activity, internalization assay” value [3] was 4 fold and the “increase in enzyme activity, arrestin-binding activation assay” value [3] was 8.5 fold.

Reference: patent publication US8426138B2 (priority 2006, dated 2013)
